Where two headings read alike, the source gives them in different places.
Assays:
rnADAMTS-5 (1-564-6H) = rnADAMTS-5 (1-564-6H) (Rattus norvegicus, UniProt Q6TY19); conditions: read-out: Rat ADAMTS-5 potency IC50
human ADAMTS-5 [1] = molecular target: T1, human ADAMTS-5 (Homo sapiens (Human), UniProt Q9UNA0); conditions: read-out: hADAMTS-5 potency IC50
human MMP13 [2] = molecular target: T2, human MMP13 (Homo sapiens (Human), UniProt P45452); conditions: read-out: hMMP-13 potency IC50
Description: The reaction is initiated by adding to the assay plate 520 MMP-fret substrate XV (10 μL, 4 μM) in the same buffer.

human TACE [3] = molecular target: T3, human TACE (Homo sapiens (Human), UniProt P78536); conditions: read-out: TACE potency IC50
T3 sequence (P78536 whole entry, looked up, change not shown): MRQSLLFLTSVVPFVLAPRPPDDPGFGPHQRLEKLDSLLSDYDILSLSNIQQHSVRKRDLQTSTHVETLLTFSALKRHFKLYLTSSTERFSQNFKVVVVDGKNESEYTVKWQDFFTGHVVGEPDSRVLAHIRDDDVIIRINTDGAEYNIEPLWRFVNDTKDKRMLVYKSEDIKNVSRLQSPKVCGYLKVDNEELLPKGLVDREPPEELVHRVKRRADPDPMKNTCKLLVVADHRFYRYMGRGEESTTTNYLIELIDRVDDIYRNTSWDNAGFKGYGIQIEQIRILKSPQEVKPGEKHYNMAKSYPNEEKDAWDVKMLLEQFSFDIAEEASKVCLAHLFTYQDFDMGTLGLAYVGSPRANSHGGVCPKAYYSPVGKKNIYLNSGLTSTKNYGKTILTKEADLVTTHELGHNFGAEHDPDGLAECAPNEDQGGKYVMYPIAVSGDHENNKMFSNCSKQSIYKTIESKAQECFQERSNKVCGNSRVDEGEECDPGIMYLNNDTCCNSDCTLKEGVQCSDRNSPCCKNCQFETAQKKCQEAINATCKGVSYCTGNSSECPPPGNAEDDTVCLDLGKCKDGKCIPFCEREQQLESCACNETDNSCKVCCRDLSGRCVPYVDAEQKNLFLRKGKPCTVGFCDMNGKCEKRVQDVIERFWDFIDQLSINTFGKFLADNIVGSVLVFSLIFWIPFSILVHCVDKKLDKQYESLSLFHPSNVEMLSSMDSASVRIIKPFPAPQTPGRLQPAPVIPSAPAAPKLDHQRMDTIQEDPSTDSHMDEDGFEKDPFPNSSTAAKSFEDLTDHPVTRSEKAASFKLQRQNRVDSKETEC

human ADAMTS-5 [4] = molecular target: T1, human ADAMTS-5; experiment: biochemical
Description: Finally, the fluorescence is read on the Envision (Perkin Elmer) after an incubation of 90 min at 37° C.

human TACE [5] = molecular target: T3, human TACE; experiment: biochemical
human MMP13 [6] = molecular target: T2, human MMP13; experiment: biochemical
Description: Human MMP13 is preactivated by incubated the enzyme in the same buffer complemented with 1 mM freshly prepared p-Aminophenylmercuric acetate (AMPA) for 1 hour at 37° C.

T1 sequence (Q9UNA0 262-930): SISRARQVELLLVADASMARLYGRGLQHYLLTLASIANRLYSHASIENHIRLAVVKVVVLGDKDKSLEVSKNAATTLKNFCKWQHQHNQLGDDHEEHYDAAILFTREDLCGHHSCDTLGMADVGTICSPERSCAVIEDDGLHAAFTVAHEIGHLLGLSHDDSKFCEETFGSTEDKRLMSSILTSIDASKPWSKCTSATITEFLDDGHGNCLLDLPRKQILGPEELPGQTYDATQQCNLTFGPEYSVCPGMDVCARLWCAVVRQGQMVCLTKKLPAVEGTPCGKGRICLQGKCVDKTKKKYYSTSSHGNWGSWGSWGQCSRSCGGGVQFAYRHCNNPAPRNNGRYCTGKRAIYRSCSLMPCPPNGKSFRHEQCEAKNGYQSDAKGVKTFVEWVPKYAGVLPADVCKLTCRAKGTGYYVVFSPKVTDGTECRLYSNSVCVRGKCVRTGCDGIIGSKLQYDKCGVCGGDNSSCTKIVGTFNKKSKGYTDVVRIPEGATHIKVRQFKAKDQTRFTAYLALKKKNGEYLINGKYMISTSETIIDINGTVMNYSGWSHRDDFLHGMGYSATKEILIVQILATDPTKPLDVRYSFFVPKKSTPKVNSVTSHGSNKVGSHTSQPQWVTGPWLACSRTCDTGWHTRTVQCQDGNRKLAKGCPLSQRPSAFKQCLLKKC

SMILES | IC50 (rnADAMTS-5 (1-564-6H)) | IC50 (human ADAMTS-5 [1]) | IC50 (human MMP13 [2]) | IC50 (human TACE [3]) | IC50 (human ADAMTS-5 [4]) | IC50 (human TACE [5]) | IC50 (human MMP13 [6])
Cc1c(Cl)cccc1N1CCN(C(=O)CCC2(c3ccccc3)NC(=O)NC2=O)CC1 (stereo not shown) [compound 21, 5-[3-[4-(3-chloro-2-methyl-phenyl)piperazin-1-yl]-3-oxo-propyl]-5-phenyl-imidazolidine-2,4-dione] | 162 nM | 166 nM | > 20000 nM | 2060 nM |  |  | 
C[C@H]1CN(C(=O)CCC2(C)NC(=O)NC2=O)CCN1c1ccc(Cl)c(F)c1 (stereo partly drawn) [compound 164, 5-[3-[(3S)-4-(4-chloro-3-fluoro-phenyl)-3-methyl-piperazin-1-yl]-3-oxo-propyl]-5-methyl-imidazolidine-2,4-dione] |  |  |  |  | 236 nM | > 20000 nM | > 20000 nM
C[C@H]1CN(C(=O)CCC2(C3CC3)NC(=O)NC2=O)CCN1c1cccc2c1cnn2C (stereo partly drawn) [compound 333, 5-cyclopropyl-5-[3-[(3S)-3-methyl-4-(1-methylindazol-4-yl)piperazin-1-yl]-3-oxo-propyl]imidazolidine-2,4-dione] |  |  |  |  | 3120 nM | > 20000 nM | 
C[C@H]1CN(C(=O)CCC2(c3ccc(C(F)(F)F)nc3)NC(=O)NC2=O)CCN1c1cc(F)cc(F)c1 (stereo partly drawn) [compound 335, 5-[3-[(3S)-4-(3,5-difluorophenyl)-3-methyl-piperazin-1-yl]-3-oxo-propyl]-5-[6-(trifluoromethyl)-3-pyridyl]imidazolidine-2,4-dione] |  |  |  |  | 78 nM | > 4000 nM | 
COCC1(CC(C)C(=O)N2CCN(c3cncc(F)c3)[C@@H](C)C2)NC(=O)NC1=O (stereo partly drawn) [compound 364, 5-[3-[(3S)-4-(5-fluoro-3-pyridyl)-3-methyl-piperazin-1-yl]-2-methyl-3-oxo-propyl]-5-(methoxymethyl)imidazolidine-2,4-dione] |  |  |  |  | 92 nM | > 20000 nM | 
